Data taken from patent US8431715B2, “Thiazole compound (as PPARδ) ligand and pharmaceutical, cosmetic and health food comprised thereof” (Seoul National University Industry Foundation, priority 2007, dated 2013).

Experiments:
[1] = biological target: T1, PPARγ (Homo sapiens, UniProt P37231); test: Transfection assay (luciferase reporter) in CV-1 cells, PPARγ; type: cell-based; conditions: 24 hours treatment
T1 construct: Full length PPARs plasmid DNA, reporter DNA confirming PPARs activity owing to its luciferase activity; expressed in transfected cells; host or cells: CV-1 cells
T1 sequence (P37231 1-505): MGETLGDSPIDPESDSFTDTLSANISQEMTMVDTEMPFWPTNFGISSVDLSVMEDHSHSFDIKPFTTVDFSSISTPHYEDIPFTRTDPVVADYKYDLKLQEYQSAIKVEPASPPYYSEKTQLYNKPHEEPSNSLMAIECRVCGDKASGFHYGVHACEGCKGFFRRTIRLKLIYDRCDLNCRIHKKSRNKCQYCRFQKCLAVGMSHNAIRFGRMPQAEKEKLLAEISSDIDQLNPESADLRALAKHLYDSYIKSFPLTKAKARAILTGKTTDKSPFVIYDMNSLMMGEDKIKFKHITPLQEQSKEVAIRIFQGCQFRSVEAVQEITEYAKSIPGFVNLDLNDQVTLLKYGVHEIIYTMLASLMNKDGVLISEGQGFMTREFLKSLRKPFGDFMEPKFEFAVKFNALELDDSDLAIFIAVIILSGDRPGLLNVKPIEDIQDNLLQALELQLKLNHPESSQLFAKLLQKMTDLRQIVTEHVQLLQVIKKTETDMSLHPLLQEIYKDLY
Description: (§1) The PPARδ activities of the R-form compound represented by formula 1 of the present invention and the S-form compound represented by formula 2 were measured by transfection assay. In addition, the selectivity to PPAR subtypes, PPARα and PPARγ, was examined. Cytotoxicity was tested by MTT assay and in vivo activity and toxicity was investigated by animal experiment using mice.
CV-1 cells were used in this assay. The cells were inoculated in a 96-well plate containing DMEM supplemented with 10% FBS, DBS (delipidated) and 1% penicillin/streptomycin and cultured in a 37 °C, 5% CO2 incubator. The experiment was performed according to the steps of inoculation, transfection, sample treatment and confirmation. Particularly, CV-1 cells were inoculated in a 96 well-plate (5000 cells/well), followed by transfection 24 hours later. Full length PPARs plasmid DNA, reporter DNA confirming PPARs activity owing to its luciferase activity, β-galactosidase DNA providing information on transfection efficiency, and transfection reagent were used for the transfection. The compounds of formula 1 and formula 2 were dissolved in dimethylsulfoxide (DMSO), which were treated to the cells via media at different concentrations. […] Luciferase activity and β-galactosidaseactivity were measured with Luminometer and a microplate reader. […] A graph was made with those values and EC50 was calculated.

[2] = system: ICR mice; test: Acute toxicity test; type: in vivo; conditions: oral, up to 2000 mg/kg, 14 days
Description: Acute toxicity and reproductive toxicity tests were performed using mice to evaluate the toxicity of the compound of the present invention. The compound of formula 1 was orally administered to ICR mice at 6 weeks at the dosage of 50 mg/kg, 300 mg/kg and 2000 mg/kg, followed by observation on toxicity for 14 days. […] The result of reproductive toxicity test using C57BL/6 mice was also consistent with the above, which is no toxicity caused by the compound of formula 1 was observed. After oral-administration of the compound to the pregnant female mice, weight gain and growth speed of fetus were investigated.

[3] = system: mice; test: Muscle endurance test, treatment during pregnancy and/or lactation, treadmill; type: in vivo
Description: An animal test was performed to confirm muscle endurance strengthening and muscle function enhancing effect of the compound of the present invention. Most muscles are generated in the developmental stage. Thus, the compound of formula 1 (10 mg/Kg/day) were orally administered to pregnant mice in the period of either pregnancy or lactation or both pregnancy and lactation. […] Muscles were observed after removing skin. As a result, muscles of the treatment group were red, unlike the controlled one. ATPase staining and immunostaining were performed. As a result, type I muscle fiber was increased in the group treated with the compound of formula 1. The effect of the changes of the muscle fiber on the enhancement of muscle endurance and muscle function was investigated by using treadmill test. As a result, running time was much extended in the group treated with the compound of formula 1.

[4] = biological target: T2, PPARδ (Homo sapiens, UniProt Q03181); test: Transfection assay (luciferase reporter) in CV-1 cells, PPARδ; type: cell-based; design: Full length PPARs plasmid DNA, reporter DNA confirming PPARs activity owing to its luciferase activity; expressed in transfected cells; host or cells: CV-1 cells
T2 sequence (Q03181 1-441): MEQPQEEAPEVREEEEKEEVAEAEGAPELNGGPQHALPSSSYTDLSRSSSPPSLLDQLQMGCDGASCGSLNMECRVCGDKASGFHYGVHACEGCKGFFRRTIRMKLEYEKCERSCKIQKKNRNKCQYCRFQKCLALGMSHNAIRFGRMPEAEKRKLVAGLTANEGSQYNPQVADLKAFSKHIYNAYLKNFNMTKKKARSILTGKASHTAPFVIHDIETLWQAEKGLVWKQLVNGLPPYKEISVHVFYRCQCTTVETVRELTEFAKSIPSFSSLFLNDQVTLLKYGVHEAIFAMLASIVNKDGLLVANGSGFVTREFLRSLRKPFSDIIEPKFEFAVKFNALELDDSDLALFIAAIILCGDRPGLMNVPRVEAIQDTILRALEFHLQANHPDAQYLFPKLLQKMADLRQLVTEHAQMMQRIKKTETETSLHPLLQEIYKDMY
Description: as §1
CV-1 cells were used in this assay. The cells were inoculated in a 96-well plate containing DMEM supplemented with 10% FBS, DBS (delipidated) and 1% penicillin/streptomycin and cultured in a 37 °C, 5% CO2 incubator. The experiment was performed according to the steps of inoculation, transfection, sample treatment and confirmation. Particularly, CV-1 cells were inoculated in a 96 well-plate (5000 cells/well), followed by transfection 24 hours later. Full length PPARs plasmid DNA, reporter DNA confirming PPARs activity owing to its luciferase activity, β-galactosidase DNA providing information on transfection efficiency, and transfection reagent were used for the transfection. The compounds of formula 1 and formula 2 were dissolved in dimethylsulfoxide (DMSO), which were treated to the cells via media at different concentrations. After culturing the cells in the incubator for 24 hours, the cells were lysed by using lysis buffer. Luciferase activity and β-galactosidaseactivity were measured with Luminometer and a microplate reader. The obtained values of luciferase were modified by the values of β-galactosidase. A graph was made with those values and EC50 was calculated.

[5] = system: C57BL/6 mice; test: Muscle endurance test in adults with exercise, treadmill; type: in vivo; conditions: 10 mg/kg oral, mice at 10 weeks, treadmill exercise 30 days
Description: Particularly, the compound of formula 1 was orally administered to C57BL/6 mice at 10 weeks at the concentration of 10 mg/kg, during which the mice were forced to exercise. The exercise was performed with treadmill for […] once a day for 30 days, precisely at the speed of 2 meter/min for the first 5 minutes, at 5 meter/min for 5 minutes, at 8 meter/min for 5 minutes and at 20 meter/min for the last 5 minutes. At the finish, muscle endurance and muscle function enhancing effect was tested by using treadmill. As a result, the time (1.5 fold) and distance (1.6 fold) of exercise were all increased in the group treated with the compound of the present invention, when compared with the control.

[6] = 10 mg/Kg/day oral to pregnant mice
[7] = 10 mg/Kg/day oral to pregnant mice, pregnancy
[8] = 10 mg/Kg/day oral, Pregnancy + lactation

Structure (SMILES): Cc1cc(S[C@H](Cc2ccccc2)c2sc(-c3ccc(C(F)(F)F)cc3)nc2C)ccc1OCC(=O)O (racemic) [formula 1]
- EC50 PPARγ [1]: ia
- changes on weight and feed taking [2]: no significant changes
- muscle colour after removing skin [3, 6]: red
- weight gain and growth rate of fetuses versus control [3, 6]: not much different
- Increasing rate (treatment group/control group), length [3, 7]: 2.4 times
- Increasing rate (treatment group/control group), time [3, 7]: 2.3 times
- Increasing rate (treatment group/control group), length [3, 8]: 3.0 times
- Increasing rate (treatment group/control group), time [3, 8]: 2.9 times
- Increasing rate (treatment group/control group), length ([3]; 10 mg/Kg/day oral, lactation): 2.2 times
- Increasing rate (treatment group/control group), time ([3]; 10 mg/Kg/day oral, lactation): 2.1 times
- type I muscle fiber ([3]; ATPase staining and immunostaining): increased
- running time ([3]; treadmill test): much extended
- EC50 ([4]; CV-1 cells, 24 hours treatment): 0.6 nM
- activity of R-isomer compared with S-isomer (formula 2) ([4]; PPARδ): 10 times
- selectivity to PPARα and PPARγ ([4]; PPARδ versus PPARα and PPARγ): 100,000 times
- distance of exercise compared with the control [5]: 1.6 fold
- time of exercise compared with the control [5]: 1.5 fold
